The values below come from ChEMBL document CHEMBL1144376, “Novel approach to pro-drugs of lactones: water soluble imidate and ortho-ester derivatives of a furanone-based COX-2 selective inhibitor” (Bioorg Med Chem Lett, 2005).

Data set [1] is described as follows: Plasma level measured at 30 min in sprague-dawley rat upon intravenous administration [dosed in PEG-400 solution]. Format: ADME, organism-based. The conditions noted are these: read-out: Plasma level.
Data set [2] is described as follows: Plasma level of compound 2 measured at 30 min in sprague-dawley rat after 2 mg/kg intravenous administration of compound. The format is ADME, organism-based. Also noted: dose 2 mg/kg, route intravenous. Particulars: in vivo, 0.5 h, read-out: Plasma level.
Data set [3] can be described thus: Plasma level measured at 30 min in sprague-dawley rat upon intravenous administration. Format: ADME. Particulars: read-out: Plasma level.
The target of data set [4] is Prostaglandin G/H synthase 1 (Homo sapiens, UniProt P23219). In words: Inhibitory concentration against prostaglandin G/H synthase 1 of human whole blood.

As usually defined, the IC50 is the concentration needed to halve the response being measured. A low value points to greater potency.

Chain of Prostaglandin G/H synthase 1 (P23219 whole entry): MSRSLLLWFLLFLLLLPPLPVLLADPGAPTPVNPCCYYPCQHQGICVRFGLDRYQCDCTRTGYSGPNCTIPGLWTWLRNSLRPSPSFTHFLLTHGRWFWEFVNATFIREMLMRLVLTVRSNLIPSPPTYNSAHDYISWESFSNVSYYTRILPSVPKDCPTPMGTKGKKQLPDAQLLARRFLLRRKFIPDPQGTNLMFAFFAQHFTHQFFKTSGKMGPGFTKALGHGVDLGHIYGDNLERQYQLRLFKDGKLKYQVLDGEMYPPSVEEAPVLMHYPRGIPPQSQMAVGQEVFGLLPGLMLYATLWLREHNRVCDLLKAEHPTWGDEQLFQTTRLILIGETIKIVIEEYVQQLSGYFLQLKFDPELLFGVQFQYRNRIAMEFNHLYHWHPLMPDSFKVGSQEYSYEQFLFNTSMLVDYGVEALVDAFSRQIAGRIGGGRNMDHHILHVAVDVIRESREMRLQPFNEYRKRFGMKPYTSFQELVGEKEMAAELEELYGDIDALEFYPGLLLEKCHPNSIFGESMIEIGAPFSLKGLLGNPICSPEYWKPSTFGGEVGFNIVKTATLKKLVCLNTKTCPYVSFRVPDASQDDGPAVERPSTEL

Take `CC[C@]1(C)OC2(OCC(CO)O2)C(OC(C)C)=C1c1ccc(S(C)(=O)=O)cc1` (stereo partly specified): the concentration at 0.5 h in data set [1] came out at 1.4 µM. Moreover, in data set [2], the concentration came out at 2.8 µM.

On to `CC[C@]1(C)OC2(OCC(COP(=O)([O-])OCC[N+](C)(C)C)O2)C(OC(C)C)=C1c1ccc(S(C)(=O)=O)cc1` (stereo partly specified), for which the concentration at 0.5 h in data set [3] turned out to be 0.2 µM. Besides, the concentration in data set [2] came out at 0.2 µM.

As for `CC[C@]1(C)O/C(=N\[C@@H](CO)C(=O)O)C(OC(C)C)=C1c1ccc(S(C)(=O)=O)cc1`, the concentration in data set [2] was less than 0.1 µM.

For `CC[C@]1(C)O/C(=N\OCC(=O)O)C(OC(C)C)=C1c1ccc(S(C)(=O)=O)cc1`, in data set [2], the concentration is less than 0.1 µM.

Consider `CC[C@]1(C)OC2(OCC(C3OC(=O)C(O)=C3O)O2)C(OC(C)C)=C1c1ccc(S(C)(=O)=O)cc1` (stereo partly specified), for which the concentration in data set [2] came out at 0.1 µM.

As to `CC[C@]1(C)OC2(OCC(COC(=O)CCC(=O)[O-])O2)C(OC(C)C)=C1c1ccc(S(C)(=O)=O)cc1.[Na+]` (stereo partly specified), the concentration at 0.5 h in data set [3] was less than 0.1 µM. For the same molecule, in data set [2], the concentration was determined as 0.4 µM.

In data set [4], `CC1(O)OC(=O)C(c2ccc(Cl)cc2)=C1c1ccc(S(C)(=O)=O)cc1` (stereo unspecified) had an IC50 of more than 86 µM.

Molecule `CC[C@]1(C)OC(=O)C(OC(C)C)=C1c1ccc(S(C)(=O)=O)cc1` had an IC50 in data set [4] of more than 86 µM.
